Test results reported in article PMC12040169 (PLOS Biology, 2025).

Assay: in vitro
Details: human, hela cells, % viability

Row | Structure (SMILES) | viability at 28.5 h, 10 µM [%]
1 | Cc1cc(C)nc(Nc2ncc(O)n2-c2ccccc2C)n1 [CBK263024] | 91.2
2 | Clc1ccc(CN2CCN(CCc3ccccc3)CC2)cc1Cl [CBK126420] | 96.3
3 | CN(c1cccc(C#N)c1)C1CCN(c2nccn(C)c2=O)C1 (centres unmarked) [CBK304718] | 105
4 | CCCc1cc(C2CCCCCN2C(=O)c2cccnc2)no1 (centres unmarked) [CBK282987] | 99.5
5 | O=C(Cc1ccc(F)cc1Cl)N1CCn2c(nnc2C2CC2)C1 [CBK283773] | 87.8
6 | Nc1ncnc2c1nc1n2[C@H]2C[C@@H](O)[C@H](O2)[C@H]1O [CBK201183] | 96.2
7 | O=C(O)C1CCCN1S(=O)(=O)c1ccc2[nH]c(=O)c(=O)[nH]c2c1 (centres unmarked) [CBK266971] | 88.9
8 | CC(=O)NCCN1CCC(O)(c2ccc(C)cc2)CC1 [CBK283321] | 87.6
9 | CC(C)CNC(=O)N1CCN(C2CCN(C)CC2)CC1 [CBK155902] | 95.3
10 | O=C(NC(c1ccc(Cl)cc1)c1ccsc1)C1CCN(CCCN2C(=O)CC3CCCCC3C2=O)CC1 (centres unmarked) [CBK147974] | 85.3
11 | O=C(NCc1cccnc1)c1ncoc1-c1cccc(Cl)c1 [CBK282403] | 85.4
12 | Cc1ccc(Cl)cc1NC(=O)CC(C(=O)O)N(C)C (centres unmarked) [CBK267105] | 112
13 | O=C(O)c1ccc(/C=N/Nc2cccc3cccnc23)cc1 [CBK262372] | 74.4
14 | Cc1cc(Cl)c(S(=O)(=O)N2CCN(c3ccccn3)CC2)cc1OCC(=O)NC1CCCCC1 [CBK266798] | 90.7
15 | OC1(c2ccc(Cl)cc2)CCNCC1 [CBK023044] | 92
16 | CCN(CC)C(=O)CN1CC=C(c2ccc(C)o2)CC1 [CBK283497] | 100
17 | CN(c1ccccc1)S(=O)(=O)c1ccc(C(=O)NCc2cccnc2)cc1 [CBK297522] | 95.5
18 | O=C(CSCc1ccc(Cl)cc1Cl)Nc1c[nH]c(=O)[nH]c1=O [CBK126912] | 90.4
19 | Nc1ccn([C@@H]2O[C@H](CO)[C@H](O)C2O)c(=S)n1 (some centres unmarked) [CBK201293] | 90.9
20 | CCNC(=O)N1CC2(CCN(CCOCC)CC2)c2ccccc21 [CBK136972] | 90.5
21 | S=c1[nH]nc(Cn2ccc(-c3ccccc3)n2)o1 [CBK022019] | 108
22 | Fc1ccc(CSc2nnc(-c3ccccn3)[nH]2)cc1 [CBK270074] | 85.8

Row | Structure (SMILES) | viability at 28.5 h, 10 µM [%]
23 | Cc1cc(C)n(CCCC(=O)N2C[C@H]3CCc4c[nH]nc4[C@H]3C2)n1 [CBK284573] | 101
24 | O=C(Nc1cnc2ccccc2c1)OCCc1cccnc1 [CBK200126] | 93.5
25 | COc1ccc(-c2nc(NC(=O)CSc3nnc(C)s3)ns2)cc1 [CBK267290] | 96.9
26 | O=C1N=C(NC2CCCCCC2)SC1CC(=O)N1CCCC1 (centres unmarked) [CBK063342] | 95.3
27 | Fc1ccc(-c2cncc(NCCc3cccnc3)n2)cc1Cl [CBK065745] | 91.3
28 | CCn1cc(NC(=S)Nc2sc3c(c2C(=O)OC)CCC(C)C3)c(C(N)=O)n1 (centres unmarked) [CBK267032] | 105
29 | O=C(c1cscn1)N1C2CCC1CC(O)(c1ccco1)C2 (centres unmarked) [CBK284135] | 105
30 | Cc1cccc(OCC(=O)N2CCN(S(=O)(=O)c3ccc([N+](=O)[O-])cc3)CC2)c1 [CBK264221] | 89.9
31 | COc1ccc(C)cc1C1(CNC(=O)C2CC(O)CN2)CCOCC1 (centres unmarked) [CBK304162] | 92
32 | Cc1c(CN2CCCC(c3cc4cccnc4[nH]3)C2)cnn1C (centres unmarked) [CBK284683] | 99.7
33 | CC(=O)Nc1ccc(-c2ccc3n(c2=O)C[C@H]2C[C@@H]3CN(C(=O)C3CCCCC3)C2)cc1 [CBK289188] | 84.6
34 | COc1cc(CC(=O)Nc2cccc(-c3ccc(OC4CCNCC4)cc3)n2)cc(OC)c1OC [CBK138351] | 83.4
35 | O=C(Nc1ccc2ncccc2c1)c1ccoc1 [CBK159823] | 95.8
36 | O=C(Nc1cncc(OC2CCNCC2)n1)c1cccnc1 [CBK036375T] | 92.1
37 | Cc1cccc(NC(=S)NCCc2ccc(S(N)(=O)=O)cc2)c1C [CBK264889] | 86.5
38 | Cc1ccc(-c2cnc(SCC(N)=O)n2-c2ccccc2)cc1 [CBK287757] | 113
39 | CCCS(=O)(=O)n1ccn(-c2ccc(Cl)c(Cl)c2)c1=O [CBK106667] | 110
40 | CCOC(=O)CSC1=NNC(C)(c2c(O)c3ccccc3n(CC)c2=O)N1 (centres unmarked) [CBK009370] | 92.5
41 | O=C(c1ccccc1)c1cc(Cl)ccc1-n1ccnc1 [CBK012383] | 105
42 | Cc1nc2ccc(NC(=O)N3CCC(c4ccccc4)C3)cc2s1 (centres unmarked) [CBK266512] | 98.8
43 | CSc1ccccc1C(=O)NCCCn1ccnc1 [CBK269749] | 85.3
44 | COc1ccc(Cl)cc1C(=O)Nc1cnn(CCCC(=O)O)c1 [CBK269855] | 80.7

Row | Structure (SMILES) | viability at 28.5 h, 10 µM [%]
45 | O=C(CSc1nnc(-c2cccnc2)n1-c1ccc(Br)cc1)Nc1ccc2c(c1)OCCO2 [CBK266133] | 96.4
46 | CCc1nc2ccc(C(=O)NCC3CCCCC3)cn2c1N(C)Cc1ccc(OC)cc1 [CBK145568] | 91.1
47 | CN1CCN(c2ccc(-c3cncc(NCCc4ccccn4)n3)cn2)CC1 [CBK037135] | 87.2
48 | Cn1ncc(N2CCC(CNC(=O)COc3cccc(F)c3)C2)cc1=O (centres unmarked) [CBK307692] | 87.1
49 | CCc1ccc(CN(C(=O)c2cc(OC)c(OC)c(OC)c2)C2CCS(=O)(=O)C2)cc1 (centres unmarked) [CBK293961] | 98.4
50 | C(=C\c1nccnc1OCCn1cccc1)/c1ccccc1 [CBK106884] | 94
51 | O=C(O)c1ccc(-c2c(Cl)cc([N+](=O)[O-])cc2Cl)o1 [CBK026623] | 102
52 | CCc1c(C)sc(NC(=S)Nc2cnccn2)c1C(=O)OC [CBK267088] | 96.5
53 | COc1ccc(NCC(=O)N/N=C(\C)c2ccccc2O)cc1 [CBK263887] | 86.3
54 | CC(=O)NCCn1nc(-c2ccccc2F)cc1CN(C)C [CBK283473] | 95.7
55 | O=[N+]([O-])c1cc([N+](=O)[O-])c2cccnc2c1NNc1nncc2ccccc12 [CBK110409] | 85.1
56 | NC(CCC(=O)O)C(=O)O (centres unmarked) [CBK260875C] | 97.3
57 | O=C(NCc1ccccc1)C(=O)NNC(=O)C12CC3CC(CC(C3)C1)C2 [CBK262951] | 94.9
58 | N#Cc1cccc(NC(=O)CN2CCN(C(=O)C3COc4ccccc4O3)CC2)c1 (centres unmarked) [CBK074779] | 93.5
59 | C[C@@H](Cn1nc2c(cc1=O)CCCC2)NC(=O)Cc1cccc(F)c1 [CBK284527] | 95.9
60 | Cc1cc2c(cc1Cl)C(=O)CC1(CCN(C(=O)C3CC(=O)OC3(C)C)CC1)O2 (centres unmarked) [CBK156514] | 94.8
61 | CN(C)C(=O)CO[C@@H]1CO[C@H]2[C@@H]1OC[C@@H]2Nc1nccc(-c2cccs2)n1 [CBK289515] | 109
62 | CCc1ccccc1Nc1nnc(SC(C)C(=O)N2CCCC2)s1 (centres unmarked) [CBK295197] | 106
63 | COc1ccc(CNCc2cccc(OC)c2OC)cc1Br [CBK074479] | 113
64 | CCCS(=O)(=O)NC1CC(C)(C)Cc2c1cnn2-c1ccc(F)cc1 (centres unmarked) [CBK306770] | 113
65 | Nc1ncc(-c2cccc3ccccc23)nc1N1CCC[C@@H]1CO [CBK063517] | 94.1
